Measured values taken from EP4144350B1, “TREATMENT OR PREVENTION OF VASCULAR MALFORMATION” (Universitätsmedizin Greifswald, priority 2021, dated 2023).

Assays:
Format in all cases: cell-based, human
[1] = tested on: CCM3^+/+ and CCM3^-/- CI-huVECs; test: Cell viability after compound treatment; conditions: for Cell viability differences between CCM3^+/+ and CCM3^-/- CI-huVECs: 72 h after treatment (Fig. 15)
[2] = tested on: CCM3^-/- CI-huVECs in co-culture with CCM3^+/+ CI-huVECs; test: Spike-in co-culture assay / apoptosis compound library screening: CCM3 knockout allele frequency by amplicon deep sequencing; conditions: for Knockout allele frequencies: 10 µM of each compound, six days, added 5 h and 3 days after seeding, DMSO-treated co-culture controls 33.5 %
Protocol: Clonally expanded CI-huVEC lines with biallelic loss-of-function variants in the first coding exon of CCM3 have been described before or were established according to a published CRISPR/Cas9 genome editing protocol. Blood outgrowth endothelial cells (BOECs) were cultured in EGM-2 medium (Lonza, Basel, Switzerland) supplemented with 18 % FCS. With the approval of the local ethics committee (University Medicine Greifswald, Germany; No.: BB 047/14a), CCM1^-/- BOECs had been established previously from CCM1^+/- BOECs of a CCM1 mutation carrier with CRISPR/Cas9 genome editing. Mutant and wild-type ECs were co-cultured in 96-well plates under standard culture conditions with the indicated mutant-to-wild-type ratios. 2500 cells were seeded per well.
An apoptosis compound library with 189 small molecules that target apoptosis, survival and proliferation was used in a high throughput screening approach (HY-L003[HY-LD-000001651]; MedChem Express, Monmouth Junction, NJ, USA). Co-cultures were treated with 10 µM of each substrate for six days. Compounds were added 5 h and 3 days after cell seeding.
NSC59984 (IUPAC: (2E)-1-(4-Methyl-1-piperazinyl)-3-(5-nitro-2-furyl)-2-propen-1-one, HY19726, MedChem Express), was used for individual experiments with the indicated concentrations.
The fraction of mutant alleles in co-culture were analysed by amplicon deep sequencing or T7EI cleavage assay. In brief, genomic target regions were first amplified by PCR. For T7E1 cleavage assays, heteroduplexes were formed and digested with T7EI enzyme (New England Biolabs, Frankfurt am Main, Germany). Cleavage products were visualised by gel electrophoresis and analysed with the Image Lab software (v6.0, Bio-Rad, Hercules, CA, USA). For NGS analysis, sequencing adapters and individual barcodes were introduced in a second round of PCR [7]. Sequencing libraries were pooled and sequenced on a MiSeq instrument with 2 x 150 cycles (Illumina, San Diego, CA, USA). The data were analysed with the SeqNext software (JSI Medical Systems, Ettenheim, Germany).

caspase-3 = test: Caspase-3 activity assay
Protocol: The proliferation rate of mutant and wild-type ECs in monoculture was quantified with the CyQuant® Cell Proliferation Assay Kit (C7026, Thermo Fisher Scientific). To discriminate the proliferation rates of CCM3^+/+ and CCM3^-/- CI-huVEC in co-culture, the CyQuant® Cell Proliferation Assay results were combined with mutant allele frequencies that had been determined by amplicon deep sequencing. To analyse their sensitivity to apoptosis, mutant and wild-type ECs were seeded in 96-well plates with 15.000 cells per well, and treated with staurosporine (S440, Sigma-Aldrich, St. Louis, MO, USA) 24 h later. The Caspase-3 DEVD-R110 Fluorometric HTS Assay Kit (30009, Biotium, Fremont, CA, USA), the Cell Meter™ Caspase 8 Activity Apoptosis Assay Kit (22798, AAT Bioquest, Sunnyvale, CA, USA), and the Cell Meter™ Caspase 9 Activity Apoptosis Assay Kit (22799, AAT Bioquest) were used following the manufacturer's instructions.

CI-huVECs = test: Bright-field microscopy of EC morphology after compound treatment; conditions: library screening follow-up (Fig. 14)

Row | Caspase-3 activities (caspase-3; treatment for 24 h, CCM3^+/+ and CCM3^-/- CI-huVECs (Fig. 16)) | SMILES | Cell viability differences between CCM3^+/+ and CCM3^-/- CI-huVECs [1] | Knockout allele frequencies [2] [%] | EC morphology / endothelial phenotype (CI-huVECs) | Reversal of the NSC59984 (10 µM) effect on clonal expansion of CCM3^-/- cells ([2]; UC2288 1 to 10 µM together with NSC59984 10 µM (Fig. 28)) | Cell viability ([1]; Fig. 15) | Apoptosis / caspase-3 activation (caspase-3; Fig. 16)
1 | did not increase caspase-3 activities | C=C1C(=O)O[C@@H]2C[C@@]3(C)CCCC(=C)[C@@H]3C[C@H]12 [isoalantolactone, reference compound] | No cell viability differences | 7.7 | induced an abnormal endothelial phenotype and significant cell death | – | – | –
2 | – | O=C(Nc1ccc(Cl)c(C(F)(F)F)c1)NC1CCC(Oc2ccc(C(F)(F)F)cn2)CC1 (stereo not shown) [UC2288, reference compound] | – | – | – | could not be reversed | – | –
3 | – | CC(C)S(=O)(=O)c1ccc2nccc(Nc3ccc4scnc4c3)c2c1 [GSK-872] | increased the viability of CCM3^-/- CI-huVECs | 65.1 | more compact EC morphology | – | increased cell viability at low concentrations | induced moderate caspase-3 activation
